Broadly, the logP is a log measure of how a compound divides between an organic and an aqueous phase.

Data on two compounds can be found in patent publication US20030157155A1, “Compositions for use as penetration promoters in transdermal formulations for highly lipophilic active ingredients” (priority 2000, published 2003).

The nature of data set [1]: physchem.
The nature of data set [2]: octanol/water partition coefficient.

Each structure is given as a SMILES string.

Turning to `CN(CCCCC[C@@H]1Cc2cc(O)ccc2[C@@H]2[C@@H]1[C@@H]1CC[C@H](O)[C@@]1(C)C[C@@H]2F)CCCSCCCC(F)(F)C(F)(F)F` [antiestrogen 1, 11β-fluoro-7α-{5-[N-methyl-N-3-(4,4,5,5,5-pentafluoropentylthio)propylamino]pentyl}estra-1,3,5(10)-triene-3,17β-diol], the logP in data set [1] was determined as 5.8.

On to `CN(CCCCCCC(F)(F)C(F)(F)C(F)(F)C(F)(F)F)CCCCC[C@@H]1Cc2cc(O)ccc2[C@@H]2[C@@H]1[C@@H]1CC[C@H](O)[C@@]1(C)C[C@@H]2F` [antiestrogen 2, 11β-fluoro-7α-{5-[methyl-(7,7,8,8,9,9,10,10,10-nonafluorodecyl)amino]pentyl}estra-1,3,5(10)-triene-3,17β-diol], for which, in data set [2], the logP is 7.8.
